Results on nine molecules are retold here after publication PMC5059489, “Mechanistic evaluation and transcriptional signature of a glutathione S-transferase omega 1 inhibitor” (Nature Communications, 2016).

In general, GI50 refers to the concentration that inhibits growth by half. A lower GI50 goes with greater sensitivity of the cells. One may read the IC50 as the concentration needed to halve the response being measured.

One assay has as its system HCT116p53+/+ cell. Description: MTT cell proliferation at single concentration. Format: cell-based, human. The method, boiled down: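 MTT read-out (formazan in DMSO, 570 nm) after 3 h dye incubation at 37 °C, following 72 h inhibitor treatment of overnight-attached cells. Triplicate concentrations; ≥3 independent dose–response runs per line.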
The next assay deals with HCT116. Description: MTT cytotoxicity GI50, HCT116. In kind it is cell-based, human. On the procedure: (§1) Cell proliferation was assessed by a MTT assay. Cancer cells were seeded in 96-well microtitre plates and, after overnight attachment, treated with GSTO1 inhibitors. After 72 h, MTT solution (3 mg ml^−1; 20 μl) was added to each well and cells were incubated for 3 h at 37 °C. After incubation, media from each well was removed and the dark blue formazan crystals formed by live cells were dissolved in DMSO (150 μl per well). The absorbance intensity was measured at 570 nm on a microplate reader (Molecular Devices, Sunnyvale, CA, USA). Cell viability after 24 h treatment was assessed using ApoTox-Glo triplex assay (Promega) according to the manufacturer's protocol. At least three independent dose–response experiments with each concentration tested in triplicate were performed for each cell line.

Assay [1] deals with T1, GSTO1 (Homo sapiens, UniProt P78417).
T1 sequence (P78417 1-241): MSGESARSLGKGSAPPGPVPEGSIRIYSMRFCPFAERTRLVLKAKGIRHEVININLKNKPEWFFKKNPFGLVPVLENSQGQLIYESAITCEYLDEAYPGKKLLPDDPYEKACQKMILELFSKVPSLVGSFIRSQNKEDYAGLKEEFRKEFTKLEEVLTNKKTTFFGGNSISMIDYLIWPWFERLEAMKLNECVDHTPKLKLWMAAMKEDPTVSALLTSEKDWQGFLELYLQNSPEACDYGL
Description: In-gel fluorescence competitive CMFDA binding assay, recombinant GSTO1. The settings on record: inhibition of CMFDA binding.
Description: (§2) Primary screening of GSTO inhibitors was based on competitive inhibition of CMFDA binding to endogenous GSTO. Briefly, HCT116^p53+/+ cells (4 × 10^4 per well) were coated in a 12-well plate. […] Cells were then washed with PBS and lysed using Cell Lytic M buffer (Sigma). […] Gels were immediately scanned on a Typhoon variable mode imager (Amersham Bioscience). Quantification of fluorescent band intensity was done using Image Quant 5.2 software.

The next assay deals with T2, endogenous GSTO1 (Homo sapiens, UniProt P78417).
T2 sequence (P78417 1-241): T1 sequence (P78417 1-241)
Description: In-gel fluorescence competitive CMFDA binding assay, endogenous GSTO1 in HCT116. The settings on record: for IC50: read-out: Competitive Binding assay Endogenous GSTO1 IC50; for GSTO binding assay (% Inhibition at 10 µM) Endogenous: inhibition of CMFDA binding, HCT116.

The subject of a further assay is HT29. The experiment in a line: MTT cytotoxicity GI50, HT29. Format: cell-based. On the procedure: as §1
In assay [2] the target is T1, GSTO1. The experiment in a line: GSTO1 substrate assay (reduction of 4-NPG). The settings on record: for IC50: read-out: GSTO substrate assay IC50, cluster screening tables.
Description: For activity screening, we adapted a GSTO1 substrate assay that relies on the quantification of the reduction of S-(4-nitrophenacyl)glutathione (4-NPG), a GSTO1-specific substrate[17], using recombinant human GSTO1 in a high-throughput screening format.
Enzyme activity was measured by monitoring the reduction of 4-NPG to 4-nitroacetophenone by GSTO1.
The target of the next assay is PDI (Homo sapiens, UniProt P07237). The experiment in a line: PDI activity assay (PDI-catalysed reduction of insulin). In kind it is biochemical. Also on record: made in house. The settings on record: for IC50: inhibition of PDI-catalyzed reduction of insulin; for Fold selectivity: GSTO1 versus PDI enzyme inhibition.
PDI, sequence (P07237 18-508, species assumed): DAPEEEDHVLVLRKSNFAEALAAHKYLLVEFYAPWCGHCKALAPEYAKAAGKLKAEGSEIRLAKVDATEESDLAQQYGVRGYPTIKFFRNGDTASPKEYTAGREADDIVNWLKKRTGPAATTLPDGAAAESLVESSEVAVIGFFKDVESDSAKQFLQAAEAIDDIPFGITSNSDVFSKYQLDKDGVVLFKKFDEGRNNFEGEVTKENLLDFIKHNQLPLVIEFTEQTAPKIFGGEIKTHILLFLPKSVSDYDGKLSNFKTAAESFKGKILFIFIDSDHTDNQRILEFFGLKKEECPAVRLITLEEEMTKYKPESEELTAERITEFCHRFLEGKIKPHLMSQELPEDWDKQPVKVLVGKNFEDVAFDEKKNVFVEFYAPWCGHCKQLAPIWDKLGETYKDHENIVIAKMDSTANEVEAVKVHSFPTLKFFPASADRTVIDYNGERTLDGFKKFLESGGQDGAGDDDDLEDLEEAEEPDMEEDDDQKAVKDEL
For a further assay, the system named is HCT116 cells. The experiment in a line: Bru-seq nascent RNA profiling. The settings on record: C1-14 (10 μM) 4 h vs DMSO.

Molecules are shown by their SMILES. Several values for one entry are separate records, joined by “and”; a condition that tells them apart may be missing. Equal entries are not always repeated.

Description for HCT116 cells: The data set was analysed using the DAVID, ingenuity pathway analysis (IPA) and GSEA for pathway identification. […] Data sets with nearly 250 genes containing the gene identifiers and fold changes were uploaded to the IPA web-based application and each gene identifier was mapped to its corresponding gene object in the ingenuity pathways knowledge base. Finally, the biological function genes were ordered by P value of significance and maximum number of genes in the pathway. Bru-Seq data were further analysed using GSEA for exploring the mechanism of cellular action of GSTO1 and its inhibitor. A pre-ranked gene list of the Bru-Seq data set was submitted to GSEA, and enrichment analysis was done based on the Kolmogorov–Smirnov statistic[59][60]. […] For each gene set, the ES (enrichment score) was normalized to account for differences in gene set size and the false discovery rate relative to the normalized enrichment score values was calculated.
Description for PDI: The reduction reaction was catalysed by PDI at room temperature, and the resulting aggregation of reduced insulin B chains was measured at 620 nm. % PDI activity was calculated from absorbance values at T=0 and 80 min.
Description for endogenous GSTO1: as §2

`CC1CCc2c(sc(NC(=O)CCl)c2C(N)=O)C1` (centres unmarked) [C2-18]: the “% Inhibition of HCT116p53+/+ cell proliferation at 10 µM” value in the assay on HCT116p53+/+ cell is on record as 82.1%. The concentration for 50% growth inhibition (GI50) in the assay with HCT116 is 6.9 ± 1.9 µM; in the assay with HT29, 9.5 ± 2.8 µM. At GSTO1 [1], the “GSTO binding assay (% Inhibition at 10 µM) Recombinant” value was found to be 72.8%. In addition, the values for the half-inhibitory concentration (IC50) at endogenous GSTO1, at GSTO1 [2] and on PDI were 0.075 µM, 0.119 µM and greater than 10 µM, respectively. At GSTO1 [2], the “GSTO substrate assay % Inhibition at 10 µM” value is 78.7%.
For the molecule `COC(=O)c1c(-c2ccccc2Cl)csc1NC(=O)CCl` [C2-10], the “% Inhibition of HCT116p53+/+ cell proliferation at 10 µM” value in the assay with HCT116p53+/+ cell is 9.1%. Besides, the GI50 with HCT116 is 18.8 ± 1.6 µM; in the assay on HT29, 18.1 ± 1.6 µM. Moreover, on GSTO1 [1], the “GSTO binding assay (% Inhibition at 10 µM) Recombinant” value is 48.4%. For the same molecule, the “GSTO binding assay (% Inhibition at 10 µM) Endogenous” value at endogenous GSTO1 stood at 51.6%. Further, the IC50 is 0.19 µM at endogenous GSTO1, 0.062 µM on GSTO1 [2] and greater than 10 µM against PDI. Moreover, the “GSTO substrate assay % Inhibition at 10 µM” value at GSTO1 [2] is given as 88.4%.
Molecule `CCOC(=O)c1c(NC(=O)CCl)sc2c1CCCCC2` [C2-16] displayed a 50% growth inhibitory concentration (GI50) in the assay with HCT116 greater than 20 µM. Besides, the “GSTO binding assay (% Inhibition at 10 µM) Recombinant” value at GSTO1 [1] was determined as 54.7%. Further, on endogenous GSTO1, the “GSTO binding assay (% Inhibition at 10 µM) Endogenous” value is given as 53.0% and the IC50 is 0.52 µM. In the assay on HT29, this molecule yielded a GI50 of 19.8 µM. For the same molecule, on GSTO1 [2], the “GSTO substrate assay % Inhibition at 10 µM” value is 73.0% and the concentration for half-maximal inhibition (IC50) came out at 0.066 µM. At PDI, this molecule registered a Fold selectivity of 61.1 and an IC50 of 4.03 ± 0.72 µM.
On to `CN(C)c1ccc(Cl)cc1NC(=O)CCl` [C1-14], for which, in the assay on HCT116 cells, the ATP5L2 fold change was 0.70, the ATP6AP1L fold change is given as 0.71, the AURKAPS1 fold change came out at 0.68 and the BACE1-AS fold change is 0.60. In the assay with HCT116 cells, this molecule came in with an HFM1 fold change of 8.78, an HIST1H1E fold change of 8.67, an HIST1H2AC fold change of 5.52 and an HIST1H2AG fold change of 10.36. Moreover, in the assay on HCT116 cells, the HIST1H2AH fold change was determined as 6.00, the HIST1H2AI fold change came out at 8.25, the HIST1H2AJ fold change is 11.27 and the HIST1H2BJ fold change is listed as 5.45. In the assay with HCT116 cells, the HIST1H2BL fold change was found to be 15.96, the HIST1H2BN fold change turned out to be 5.80, the HIST1H3H fold change is 6.41 and the HIST1H4C fold change is recorded as 5.72. In the assay with HCT116 cells, the HIST1H4D fold change was found to be 7.81, the HIST1H4K fold change is 18.57, the HIST2H2AB fold change is recorded as 5.21 and the HIST2H3D fold change turned out to be 7.39. In the assay with HCT116 cells, the HIST3H2BB fold change was 6.97, the HIST4H4 fold change turned out to be 7.84, the HSP90AB4P fold change was 0.72 and the HUS1B fold change turned out to be 0.46. For the same molecule, in the assay with HCT116 cells, the IER3 fold change stood at 0.72, the LINC00115 fold change stood at 0.64, the LINC00311 fold change is recorded as 0.62 and the LINC00471 fold change is recorded as 0.67. Also, in the assay on HCT116 cells, the P2RX5-TAX1BP3 fold change was 0.65, the REP15 fold change is given as 0.70, the RIBC2 fold change is given as 0.70 and the RPA4 fold change was found to be 0.69. In the assay with HCT116 cells, the RPPH1 fold change is listed as 16.74, the SCARNA10 fold change amounted to 5.37, the SLC7A5P1 fold change is on record as 0.38 and the TIGD6 fold change was 0.71. Besides, in the assay with HCT116 cells, the TNFAIP3 fold change came out at 0.71, the TYRO3P fold change stood at 0.65, the ZNF572 fold change was found to be 0.70 and the ZNF670-ZNF695 fold change is 0.58. On GSTO1 [1], the “GSTO binding assay (% Inhibition at 10 µM) Recombinant” value was -15.6%. In addition, the “GSTO binding assay (% Inhibition at 10 µM) Endogenous” value at endogenous GSTO1 amounted to 6.7%. On GSTO1 [2], the “GSTO substrate assay % Inhibition at 10 µM” value was determined as 16.5%.
Turning to `O=C(CCl)Nc1nc2cc3c(cc2s1)OCCO3` [C2-27], in the assay on HCT116p53+/+ cell, the “% Inhibition of HCT116p53+/+ cell proliferation at 10 µM” value is 42.6% and 38.2%. Also, the “GSTO binding assay (% Inhibition at 10 µM) Recombinant” value on GSTO1 [1] is given as 69.0%. The “GSTO binding assay (% Inhibition at 10 µM) Endogenous” value at endogenous GSTO1 is 59.6%. Moreover, at GSTO1 [2], the “GSTO substrate assay % Inhibition at 10 µM” value was found to be 85.1% and the IC50 was found to be 8.67 µM.
For the molecule `CC1CCN(c2ccc(NC(=O)CCl)cc2)CC1` [C1-19], the “% Inhibition of HCT116p53+/+ cell proliferation at 10 µM” value in the assay on HCT116p53+/+ cell is 79.2% and 85.4%. Also, the “GSTO binding assay (% Inhibition at 10 µM) Recombinant” value at GSTO1 [1] was found to be 38.3%. Moreover, on endogenous GSTO1, the “GSTO binding assay (% Inhibition at 10 µM) Endogenous” value turned out to be 65.7%. Moreover, the “GSTO substrate assay % Inhibition at 10 µM” value on GSTO1 [2] came to 61.5%.
As to `COc1ccc2cc(CN(C)C(=O)CCl)ccc2c1` [C4-6], in the assay with HCT116p53+/+ cell, the “% Inhibition of HCT116p53+/+ cell proliferation at 10 µM” value was 44.1% and 68.5%. Also, the “GSTO binding assay (% Inhibition at 10 µM) Recombinant” value on GSTO1 [1] is reported as 55.2%. Further, the “GSTO binding assay (% Inhibition at 10 µM) Endogenous” value at endogenous GSTO1 came out at 49.5%. Also, the “GSTO substrate assay % Inhibition at 10 µM” value on GSTO1 [2] is listed as 29.3%.
Regarding `O=C(CCl)Nc1ccc(S(=O)(=O)C(F)F)cc1` [C1-24], the “% Inhibition of HCT116p53+/+ cell proliferation at 10 µM” value in the assay with HCT116p53+/+ cell is 89.5% and 91.8%. Moreover, the GI50 in the assay on HCT116 was found to be 3.3 ± 1.1 µM; with HT29, 5.1 ± 1.3 µM. Besides, the “GSTO binding assay (% Inhibition at 10 µM) Recombinant” value on GSTO1 [1] was 68.4%. The “GSTO binding assay (% Inhibition at 10 µM) Endogenous” value at endogenous GSTO1 was 62.1%. On GSTO1 [2], the “GSTO substrate assay % Inhibition at 10 µM” value is 77%. The half-maximal inhibitory concentration (IC50) on GSTO1 [2] was found to be 0.148 µM; against PDI, 3.57 ± 0.69 µM. Moreover, the Fold selectivity on PDI is 24.1.
`Cc1cc(S(=O)(=O)N(C)C)cc(NC(=O)CCl)c1C` [C1-26]: the “% Inhibition of HCT116p53+/+ cell proliferation at 10 µM” value with HCT116p53+/+ cell is 13.2%. For the same molecule, at GSTO1 [1], the “GSTO binding assay (% Inhibition at 10 µM) Recombinant” value is on record as 51.4%. Moreover, at endogenous GSTO1, the “GSTO binding assay (% Inhibition at 10 µM) Endogenous” value is recorded as 48.9%. Besides, the “GSTO substrate assay % Inhibition at 10 µM” value at GSTO1 [2] amounted to 31.1%.
